Reference: patent publication US4452814A, “Nitrosourea derivatives” (priority 1981, dated 1984)

Legend:
[1] = tested on: experimental leukemia and tumors; conditions: wide variety of experimental leukemia and tumors; cited from earlier work
[2] = Acute toxicity (LD50) in BDF1 male mice, i.p. or i.v., Litchfield-Wilcoxon's method; assay type: in vivo; conditions: BDF1 male mice about 6 weeks old, observed after 21 days
Description: The nitrosourea derivatives of formulae (I), (II) and (III) according to this invention are further characterized by their low toxicity. Thus, acute toxicity represented by LD50 of some typical compounds of formula (I), when administered intraperitoneally (i.p.) or intravenously (i.v.) to BDF1 male mice aged about 6-weeks old and observed after the lapse of 21 days according to Litchfield-Wilcoxon's method, is as follows: […]

Leukemia L 1210 cells = assay: Antileukemic activity on Leukemia L 1210 in mice (i.p. inoculated, compound i.p.); assay type: in vivo, Male BDF1 mice; conditions: for Mean survival days, treated: control 7.7
Experimental: Antileukemic activity of a typical nitrosourea derivative of formula (I) according to this invention was tested on Leukemia L 1210 in mice, details of which are given below.
Male BDF1 mice, aged about 7 weeks old and weighing 22±1 g were used in groups of five animals for each test.
Leukemia L 1210 cells were inoculated intraperitoneally in a concentration of 1×10^6 cells/0.05 ml/mouse.
The test compound was dissolved in a physiological salt solution to give a series of solutions in predetermined concentrations and 0.1 ml of the each solution was administered intraperitoneally to each mouse once a day from the 24th hour after the tumor cell inoculation for 3 consecutive days. The antileukemic activity of the test compound was assessed by mean survival days and percentage increase in life-span. The percentage increase in life-span (ILS) was calculated as follows: [formula] T: The mean survival days of the treated animals C: The mean survival days of the untreated animals
The control test for this purpose was carried out in the same way as that used for the test compound except that 0.1 ml of the physiological salt solution was administered in place of the solution of the test compound.

[3] = 0.5 mg/kg i.p. once a day for 3 days
[4] = 1 mg/kg i.p. once a day for 3 days
[5] = 2 mg/kg i.p. once a day for 3 days
[6] = 8 mg/kg i.p. once a day for 3 days
[7] = 16 mg/kg i.p. once a day for 3 days

In the case of O=NN(CCCl)C(=O)N[C@H]1[C@H](O)CCC[C@@H]1O [DONU, 1-(2-chloroethyl)-3-(1,3/2N-dihydroxycyclohexyl)-1-nitrosourea], the “antitumor activity, in words” value [1] is given as “broad spectrum of antitumor activity”.

In the case of O=NN(CCCl)C(=O)N[C@@H]1O[C@H](CO)[C@@H](O)[C@H](O)[C@H]1O [GANU, 1-(2-chloroethyl)-3-(β-D-glucopyranosyl)-1-nitrosourea], the “antitumor activity, in words” value [1] is listed as “broad spectrum of antitumor activity”.

With NC(=O)C1CCCN1C(=O)N(CCCl)N=O (stereo not drawn) [N-[N'-(2-chloroethyl)-N'-nitrosocarbamoyl]-proline amide] the LD50 ([2]; i.p.) was 219.6 mg/kg and the LD50 ([2]; i.v.) was 195.4 mg/kg.

With NC(=O)CNC(=O)N(CCCl)N=O [N-[N'-(2-chloroethyl)-N'-nitrosocarbamoyl]glycine amide] the LD50 ([2]; i.v.) was 22.4 mg/kg, the LD50 at 504 h ([2]; mouse, in vivo, ip) was 21.2 mg/kg and the “ILS (percentage increase in life-span)” value (Leukemia L 1210 cells; [3]) was 32.5%. The “Mean survival days, treated” value (Leukemia L 1210 cells; [3]) was 10.2 days, the “ILS (percentage increase in life-span)” value (Leukemia L 1210 cells; [4]) was 37.7% and the “Mean survival days, treated” value (Leukemia L 1210 cells; [4]) was 10.6 days. The “ILS (percentage increase in life-span)” value (Leukemia L 1210 cells; [5]) was 81.8%, the “Mean survival days, treated” value (Leukemia L 1210 cells; [5]) was 14.0 days and the “ILS (percentage increase in life-span)” value (Leukemia L 1210 cells; [6]) was over 679.2%. The “Mean survival days, treated” value (Leukemia L 1210 cells; [6]) was over 60.0 days, the “ILS (percentage increase in life-span)” value (Leukemia L 1210 cells; [7]) was over 679.2% and the “Mean survival days, treated” value (Leukemia L 1210 cells; [7]) was over 60.0 days.

For CN(CC(N)=O)C(=O)N(CCCl)N=O [N-[N'-(2-chloroethyl)-N'-nitrosocarbamoyl]sarcosine amide], the LD50 ([2]; i.p.) was 392.0 mg/kg and the LD50 ([2]; i.v.) was 426.6 mg/kg.
